Source: PubChem BioAssay (NCI)
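How tested: cells in 96-well plates exposed to compound for 48 hours at five concentrations. TGI: total growth inhibition.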

Assays:
Assay in all cases: NCI tumour cell line growth inhibition, 48 h
[1] = system: HT29 colon
[2] = system: BT-549 breast
[3] = system: UO-31 renal
[4] = system: OVCAR-8 ovarian
[5] = system: A549 NSCLC
[6] = system: SN12C renal
[7] = system: EKVX NSCLC
[8] = system: SK-MEL-2 melanoma
[9] = system: 786-0 renal
[10] = system: NCI/ADR-RES ovarian
[11] = system: U251 CNS
[12] = system: HL-60(TB) leukemia
[13] = system: SK-OV-3 ovarian
[14] = system: HCT-15 colon
[15] = system: KM12 colon
[16] = system: SNB-19 CNS
[17] = system: MCF7 breast
[18] = system: DU-145 prostate
[19] = system: T-47D breast
[20] = system: HCC-2998 colon
[21] = system: IGROV1 ovarian
[22] = system: HS 578T breast
[23] = system: OVCAR-5 ovarian
[24] = system: SW-620 colon
[25] = system: TK-10 renal
[26] = system: HOP-92 NSCLC
[27] = system: K-562 leukemia
[28] = system: SF-268 CNS
[29] = system: NCI-H23 lung
[30] = system: MDA-MB-231 breast
[31] = system: HOP-62 NSCLC
[32] = system: SR leukemia
[33] = system: HCT-116 colon
[34] = system: RPMI-8226 leukemia
[35] = system: M14 melanoma
[36] = system: SF-295 CNS
[37] = system: COLO 205 colon
[38] = system: SF-539 CNS
[39] = system: RXF 393 renal
[40] = system: LOX IMVI melanoma
[41] = system: NCI-H460 lung
[42] = system: MOLT-4 leukemia
[43] = system: A498 renal
[44] = system: MDA-N
[45] = system: UACC-257 melanoma
[46] = system: PC-3 prostate
[47] = system: ACHN renal
[48] = system: CAKI-1 renal
[49] = system: SK-MEL-5 melanoma
[50] = system: NCI-H226 lung
[51] = system: CCRF-CEM leukemia
[52] = system: UACC-62 melanoma
[53] = system: SNB-75 CNS
[54] = system: OVCAR-4 ovarian
[55] = system: MDA-MB-435
[56] = system: SK-MEL-28 melanoma
[57] = system: OVCAR-3 ovarian
[58] = system: MALME-3M melanoma
[59] = system: NCI-H522 lung

Structure (SMILES): O=C1c2cc3ccccc3cc2C2(c3ccc(Cl)cc3)NCCN12 (stereo not given)
- TGI [1]: > 100 µM
- TGI [2]: > 100 µM
- TGI [3]: > 100 µM
- TGI [4]: > 100 µM
- TGI [5]: 87.4 µM
- TGI [6]: > 100 µM
- TGI [7]: 95.9 µM
- TGI [8]: 45.5 µM
- TGI [9]: 99.2 µM
- TGI [10]: > 100 µM
- TGI [11]: > 100 µM
- TGI [12]: 80 µM
- TGI [13]: 68.9 µM
- TGI [14]: > 100 µM
- TGI [15]: 49.3 µM
- TGI [16]: 68.9 µM
- TGI [17]: 77.9 µM
- TGI [18]: > 100 µM
- TGI [19]: > 100 µM
- TGI [20]: 60.4 µM
- TGI [21]: > 100 µM
- TGI [22]: > 100 µM
- TGI [23]: 81 µM
- TGI [24]: > 100 µM
- TGI [25]: > 100 µM
- TGI [26]: > 100 µM
- TGI [27]: > 100 µM
- TGI [28]: > 100 µM
- TGI [29]: 64.1 µM
- TGI [30]: > 100 µM
- TGI [31]: 86.3 µM
- TGI [32]: > 100 µM
- TGI [33]: 45 µM
- TGI [34]: 98.2 µM
- TGI [35]: 92.7 µM
- TGI [36]: 62 µM
- TGI [37]: 36.3 µM
- TGI [38]: 61.5 µM
- TGI [39]: 42.3 µM
- TGI [40]: 56.3 µM
- TGI [41]: > 100 µM
- TGI [42]: > 100 µM
- TGI [43]: > 100 µM
- TGI [44]: > 100 µM
- TGI [45]: > 100 µM
- TGI [46]: 94.9 µM
- TGI [47]: > 100 µM
- TGI [48]: > 100 µM
- TGI [49]: 40.4 µM
- TGI [50]: > 100 µM
- TGI [51]: > 100 µM
- TGI [52]: 55.4 µM
- TGI [53]: > 100 µM
- TGI [54]: > 100 µM
- TGI [55]: > 100 µM
- TGI [56]: > 100 µM
- TGI [57]: 53.8 µM

Structure (SMILES): CN1CCN(CC(=O)N2c3ccccc3Sc3cc4ccccc4cc32)CC1
- TGI [1]: 16.4 µM
- TGI [2]: 30.2 µM
- TGI [3]: 26.7 µM
- TGI [4]: 36.5 µM
- TGI [5]: 30.3 µM
- TGI [6]: 25.2 µM
- TGI [7]: 25.5 µM
- TGI [8]: 31.9 µM
- TGI [9]: 26.8 µM
- TGI [10]: 34.4 µM
- TGI [11]: 28.7 µM
- TGI [12]: 4.55 µM
- TGI [58]: 28.4 µM
- TGI [13]: 30.3 µM
- TGI [14]: 34.7 µM
- TGI [15]: 31.8 µM
- TGI [16]: 35.3 µM
- TGI [17]: 31.6 µM
- TGI [18]: 29.3 µM
- TGI [19]: 46.1 µM
- TGI [21]: 32.8 µM
- TGI [22]: 28.3 µM
- TGI [23]: 29.8 µM
- TGI [24]: 50.9 µM
- TGI [25]: 29.5 µM
- TGI [26]: 24.6 µM
- TGI [27]: 33.6 µM
- TGI [28]: 25.6 µM
- TGI [29]: 40.1 µM
- TGI [30]: 27.7 µM
- TGI [59]: 31.9 µM
- TGI [31]: 33 µM
- TGI [32]: 31.2 µM
- TGI [33]: 22.2 µM
- TGI [34]: 34.1 µM
- TGI [35]: 29 µM
- TGI [36]: 28.3 µM
- TGI [37]: 36.2 µM
- TGI [38]: 30.9 µM
- TGI [39]: 27 µM
- TGI [40]: 33.4 µM
- TGI [41]: 32.8 µM
- TGI [42]: 28.4 µM
- TGI [43]: 27.9 µM
- TGI [44]: 22.4 µM
- TGI [45]: 24.5 µM
- TGI [46]: 27.6 µM
- TGI [47]: 30.3 µM
- TGI [48]: 26 µM
- TGI [49]: 34.7 µM
- TGI [50]: 42.8 µM
- TGI [51]: 83.6 µM
- TGI [52]: 31.6 µM
- TGI [53]: 27.8 µM
- TGI [54]: 29.1 µM
- TGI [55]: 23.7 µM
- TGI [56]: 28.9 µM
- TGI [57]: 26.1 µM
